In this experiment the target is T1, mutant B-RAF (Homo sapiens, UniProt P15056, V600E).
T1 construct: purchased Upstate (Charlottesville, Va.)
Kind of experiment: RAF biochemical assay (MEK-1 phosphorylation, anti-phospho MEK1/2 detection). To be noted: for IC50: read-out: Mutant B-RAF IC50; for inhibition at 10 µM: read-out: Mutant B-RAF % inhibition. The essentials:
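Detection is by ELISA: after a 30 min room-temperature reaction, plate-captured GST-MEK-1 is probed with anti-phospho MEK1/2, then an AP-tagged secondary antibody with fluorescent Attophos read-out.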

T1 sequence (P15056 whole entry V600E): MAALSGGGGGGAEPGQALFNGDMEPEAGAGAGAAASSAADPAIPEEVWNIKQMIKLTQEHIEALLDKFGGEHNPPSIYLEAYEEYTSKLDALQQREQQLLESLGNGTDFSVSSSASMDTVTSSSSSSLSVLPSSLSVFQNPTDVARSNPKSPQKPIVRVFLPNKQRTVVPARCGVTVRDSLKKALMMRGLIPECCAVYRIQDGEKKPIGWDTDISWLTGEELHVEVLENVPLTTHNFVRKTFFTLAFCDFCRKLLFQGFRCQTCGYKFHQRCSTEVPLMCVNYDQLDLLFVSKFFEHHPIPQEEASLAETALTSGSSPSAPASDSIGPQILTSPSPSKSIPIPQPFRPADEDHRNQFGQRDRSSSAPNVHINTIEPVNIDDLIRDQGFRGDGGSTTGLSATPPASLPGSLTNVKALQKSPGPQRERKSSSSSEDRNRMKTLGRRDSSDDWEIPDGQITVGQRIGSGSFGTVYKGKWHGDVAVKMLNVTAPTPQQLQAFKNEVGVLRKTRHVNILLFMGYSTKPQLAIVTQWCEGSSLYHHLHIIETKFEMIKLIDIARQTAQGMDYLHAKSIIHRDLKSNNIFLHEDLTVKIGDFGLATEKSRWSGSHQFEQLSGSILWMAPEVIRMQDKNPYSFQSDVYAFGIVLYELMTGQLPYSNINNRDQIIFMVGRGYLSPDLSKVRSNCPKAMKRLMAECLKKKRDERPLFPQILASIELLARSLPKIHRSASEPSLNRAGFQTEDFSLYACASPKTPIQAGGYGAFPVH

With `O=C(c1cccc2cccnc12)N1CCC(Nc2nccc(-c3c(-c4ccc(F)cc4)nc4occn34)n2)CC1` [Example 161, 4-[6-(4-fluorophenyl)Imidazo[2,1-b][1,3]oxazol-5-yl]-N-[1-(quinolin-8-ylcarbonyl)piperidin-4-yl]pyrimidin-2-amine], the concentration for half-maximal inhibition (IC50) amounted to 1.57 µM.
On the same count and under the same terms, the result for `O=C(C1CCNCC1)N1CCC(Nc2nccc(-c3c(-c4ccc(F)cc4)nc4occn34)n2)CC1` [Example 162, 4-[6-(4-fluorophenyl)imidazo[2,1-b][1,3]oxazol-5-yl]-N-[1-(piperidin-4-ylcarbonyl)piper-idin-4-yl]pyrimidin-2-amine] reads 1.32 µM.
`COCC(=O)N1CCC(Nc2nccc(-c3c(-c4ccc(F)cc4)nc4occn34)n2)CC1` [Example 163, 4-[6-(4-fluorophenyl)imidazo[2,1-b][1,3]oxazol-5-yl]-N-[1-(methoxyacetyl)piperidin-4-yl]pyrimidin-2-amine]: the inhibition at 10 µM worked out at 53%.
The same measure, in the same setting: under `O=C(C1CCCCC1)N1CCC(Nc2nccc(-c3c(-c4ccc(F)cc4)nc4occn34)n2)CC1` [Example 164, N-[1-(cyclohexylcarbonyl)piperidin-4-yl]-4-[6-(4-fluorophenyl)imidazo[2,1-b][1,3]oxazol-5-yl]pyrimidin-2-amine] stands 38%; under `O=C(c1ccncc1)N1CCC(Nc2nccc(-c3c(-c4ccc(F)cc4)nc4occn34)n2)CC1` [Example 165, 4-[6-(4-fluorophenyl)imidazo[2,1-b][1,3]oxazol-5-yl]-N-(1-isonicotinoylpiperidin-4-yl)pyrimidin-2-amine], 33%; under `O=C(c1ccco1)N1CCC(Nc2nccc(-c3c(-c4ccc(F)cc4)nc4occn34)n2)CC1` [Example 166, 4-[6-(4-fluorophenyl)imidazo[2,1-b][1,3]oxazol-5-yl]-N-[1-(2-furoyl)piperidin-4-yl]pyrimidin-2-amine], 76%.
With `O=C(NC1CCCCC1)N1CCC(Nc2nccc(-c3c(-c4ccc(F)cc4)nc4occn34)n2)CC1` [Example 167, N-cyclohexyl-4-({4-[6-(4-fluorophenyl)imidazo[2,1-b][1,3]oxazol-5-yl]pyrimidin-2-yl}amino)piperidine-1-carboxamide], the IC50 stood at 4.71 µM.
For `CCCCNC(=O)N1CCC(Nc2nccc(-c3c(-c4ccc(F)cc4)nc4occn34)n2)CC1` [Example 168, N-butyl-4-({4-[6-(4-fluorophenyl)imidazo[2,1-b][1,3]oxazol-5-yl]pyrimidin-2-yl}amino)piperidine-1-carboxamide], the IC50 was determined as 1.11 µM.
`O=C(NCCc1ccccc1)N1CCC(Nc2nccc(-c3c(-c4ccc(F)cc4)nc4occn34)n2)CC1` [Example 169, 4-({4-[6-(4-fluorophenyl)imidazo[2,1-b][1,3]oxazol-5-yl]pyrimidin-2-yl}amino)-N-(2-phenylethyl)piperidine-1-carboxamide]: the half-inhibitory concentration (IC50) was found to be 0.266 µM.
For the compound `O=C(NCc1ccccc1)N1CCC(Nc2nccc(-c3c(-c4ccc(F)cc4)nc4occn34)n2)CC1` [Example 170, N-benzyl-4-({4-[6-(4-fluorophenyl)imidazo[2,1-b][1,3]oxazol-5-yl]pyrimidin-2-yl}amino)piperidine-1-carboxamide], the IC50 was found to be 0.189 µM.
Regarding `O=C(Nc1ccccc1)N1CCC(Nc2nccc(-c3c(-c4ccc(F)cc4)nc4occn34)n2)CC1` [Example 171, 4-({4-[6-(4-fluorophenyl)imidazo[2,1-b][1,3]oxazol-5-yl]pyrimidin-2-yl}amino)-N-phenylpiperidine-1-carboxamide], the IC50 was 4.73 µM.
On to `Cc1ccc(NC(=O)N2CCC(Nc3nccc(-c4c(-c5ccc(F)cc5)nc5occn45)n3)CC2)cc1` [Example 172, 4-({4-[6-(4-fluorophenyl)imidazo[2,1-b][1,3]oxazol-5-yl]pyrimidin-2-yl}amino)-N-(4-methylphenyl)piperidine-1-carboxamide], for which the half-maximal inhibitory concentration (IC50) was found to be 1.98 µM.
`COc1ccc(NC(=O)N2CCC(Nc3nccc(-c4c(-c5ccc(F)cc5)nc5occn45)n3)CC2)cc1` [Example 173, 4-({4-[6-(4-fluorophenyl)imidazo[2,1-b][1,3]oxazol-5-yl]pyrimidin-2-yl}amino)-N-(4-methoxyphenyl)piperidine-1-carboxamide]: the IC50 was found to be 2.56 µM.
Turning to `O=C(Nc1ccc(F)cc1)N1CCC(Nc2nccc(-c3c(-c4ccc(F)cc4)nc4occn34)n2)CC1` [Example 174, N-(4-fluorophenyl)-4-({4-[6-(4-fluorophenyl)imidazo[2,1-b][1,3]oxazol-5-yl]pyrimidin-2-yl}amino)piperidine-1-carboxamide], the 50% inhibitory concentration (IC50) is 4.73 µM.
For `CN(C)c1ccc(NC(=O)N2CCC(Nc3nccc(-c4c(-c5ccc(F)cc5)nc5occn45)n3)CC2)cc1` [Example 175, N-[4-(dimethylamino)phenyl]-4-({4-[6-(4-fluorophenyl)imidazo[2,1-b][1,3]oxazol-5-yl]pyrimidin-2-yl}amino)piperidine-1-carboxamide], the concentration for half-maximal inhibition (IC50) worked out at 0.066 µM.
In the case of `O=C(NCc1ccco1)N1CCC(Nc2nccc(-c3c(-c4ccc(F)cc4)nc4occn34)n2)CC1` [Example 176, 4-({4-[6-(4-fluorophenyl)imidazo[2,1-b][1,3]oxazol-5-yl]pyrimidin-2-yl}amino)-N-(2-furylmethyl)piperidine-1-carboxamide], the half-inhibitory concentration (IC50) came to 0.082 µM.
In the case of `O=C(NC1CCCCO1)N1CCC(Nc2nccc(-c3c(-c4ccc(F)cc4)nc4occn34)n2)CC1` (stereo not drawn) [Example 177, 4-({4-[6-(4-fluorophenyl)imidazo[2,1-b][1,3]oxazol-5-yl]pyrimidin-2-yl}amino)-N-(tetrahydro-2H-pyran-2-yl)piperidine-1-carboxamide], the IC50 stood at 0.354 µM.
As to `Cc1noc(C)c1NC(=O)N1CCC(Nc2nccc(-c3c(-c4ccc(F)cc4)nc4occn34)n2)CC1` [Example 178, N-(3,5-dimethylisoxazol-4-yl)-4-({4-[6-(4-fluorophenyl)imidazo[2,1-b][1,3]oxazol-5-yl]pyrimidin-2-yl}amino)piperidine-1-carboxamide], the inhibition at 10 µM stood at 19%.
Same read-out and setting: the result for `O=C(Cc1ccc(F)cc1)N1CCC(Nc2nccc(-c3c(-c4ccc(F)cc4)nc4occn34)n2)CC1` [Example 179, N-{1-[(4-fluorophenyl)acetyl]piperidin-4-yl}-4-[6-(4-fluorophenyl)imidazo[2,1-b][1,3]oxazol-5-yl]pyrimidin-2-amine] reads 29%.
Turning to `CC(C)CC(=O)N1CCC(Nc2nccc(-c3c(-c4ccc(F)cc4)nc4occn34)n2)CC1` [Example 180, 4-[6-(4-fluorophenyl)imidazo[2,1-b][1,3]oxazol-5-yl]-N-[1-(3-methylbutanoyl)piperidin-4-yl]pyrimidin-2-amine], the half-maximal inhibitory concentration (IC50) was determined as 2.04 µM.
Regarding `O=C(c1ccc(F)cc1)N1CCC(Nc2nccc(-c3c(-c4ccc(F)cc4)nc4occn34)n2)CC1` [Example 181, N-[1-(4-fluorobenzoyl)piperidin-4-yl]-4-[6-(4-fluorophenyl)imidazo[2,1-b][1,3]oxazol-5-yl]pyrimidin-2-amine], the IC50 is 2.7 µM.
Turning to `O=C(Nc1ccc(C(F)(F)F)cc1)N1CCC(Nc2nccc(-c3c(-c4ccc(F)cc4)nc4occn34)n2)CC1` [Example 182, 4-({4-[6-(4-fluorophenyl)imidazo[2,1-b][1,3]oxazol-5-yl]pyrimidin-2-yl}amino)-N-[4-(trifluoromethyl)phenyl]piperidine-1-carboxamide], the inhibition at 10 µM is 45%.
As to `O=C(NCC1CCCCC1)N1CCC(Nc2nccc(-c3c(-c4ccc(F)cc4)nc4occn34)n2)CC1` [Example 183, N-(cyclohexylmethyl)-4-({4-[6-(4-fluorophenyl)imidazo[2,1-b][1,3]oxazol-5-yl]pyrimidin-2-yl}amino)piperidine-1-carboxamide], the IC50 is 3.61 µM.
In the case of `O=C(NCCc1ccc(F)cc1)N1CCC(Nc2nccc(-c3c(-c4ccc(F)cc4)nc4occn34)n2)CC1` [Example 184, N-[2-(4-fluorophenyl)ethyl]-4-({4-[6-(4-fluorophenyl)imidazo[2,1-b][1,3]oxazol-5-yl]pyrimidin-2-yl}amino)piperidine-1-carboxamide], the half-maximal inhibitory concentration (IC50) is 1.28 µM.
As for `CC(C)(C)NC(=O)N1CCC(Nc2nccc(-c3c(-c4ccc(F)cc4)nc4occn34)n2)CC1` [Example 185, N-(tert-butyl)-4-({4-[6-(4-fluorophenyl)imidazo[2,1-b][1,3]oxazol-5-yl]pyrimidin-2-yl}amino)piperidine-1-carboxamide], the half-maximal inhibitory concentration (IC50) is 1.58 µM.
With `Cc1cc(NC(=O)N2CCC(Nc3nccc(-c4c(-c5ccc(F)cc5)nc5occn45)n3)CC2)c(C(F)(F)F)o1` [Example 186, 4-({4-[6-(4-fluorophenyl)imidazo[2,1-b][1,3]oxazol-5-yl]pyrimidin-2-yl}amino)-N-[5-methyl-2-(trifluoromethyl)-3-furyl]piperidine-1-carboxamide], the inhibition at 10 µM turned out to be 16%.
With `O=C(Nc1ccccc1F)N1CCC(Nc2nccc(-c3c(-c4ccc(F)cc4)nc4occn34)n2)CC1` [Example 187, N-(2-fluorophenyl)-4-({4-[6-(4-fluorophenyl)imidazo[2,1-b][1,3]oxazol-5-yl]pyrimidin-2-yl}amino)piperidine-1-carboxamide], the inhibition at 10 µM was found to be 10%.
On to `CCC(=O)N1CCC(Nc2nccc(-c3c(-c4ccc(F)cc4)nc4occn34)n2)CC1` [Example 188, 4-[6-(4-fluorophenyl)imidazo[2,1-b][1,3]oxazol-5-yl]-N-(1-propionylpiperidin-4-yl)pyrimidin-2-amine], for which the IC50 was found to be 1.5 µM.
With `O=C(CCc1ccccc1)N1CCC(Nc2nccc(-c3c(-c4ccc(F)cc4)nc4occn34)n2)CC1` [Example 189, 4-[6-(4-fluorophenyl)imidazo[2,1-b][1,3]oxazol-5-yl]-N-[1-(3-phenylpropanoyl)piperidin-4-yl]pyrimidin-2-amine], the half-inhibitory concentration (IC50) stood at 1.94 µM.
As to `NCC(=O)N1CCC(Nc2nccc(-c3c(-c4ccc(F)cc4)nc4occn34)n2)CC1` [Example 190, N-[1-(aminoacetyl)piperidin-4-yl]-4-[6-(4-fluorophenyl)imidazo[2,1-b][1,3]oxazol-5-yl]pyrimidin-2-amine], the IC50 came out at 1.15 µM.

Source of the values: patent publication US7501430B2 (ArQule, Inc., priority 2006, dated 2009).
